Blank lines part the entries; values can stand above or below the compound they belong to.
Legend:
RPMI-8226 = assay: Cytotoxicity against human RPMI8226 cells after 72 hrs by CCK8 method; format: functional, cell-based
Liver = assay: Antioxidant activity in Sprague-Dawley rat liver assessed as lipid peroxidation by thiobarbituric acid assay; format: functional, tissue-based
A549 = assay: Cytotoxicity against human A549 cells after 48 hrs by MTT assay; format: functional, cell-based
Kidney = assay: Antioxidant activity in Sprague-Dawley rat kidney assessed as lipid peroxidation by thiobarbituric acid assay; format: functional, tissue-based
HL-60 = assay: Cytotoxicity against human HL60 cells after 72 hrs by CCK8 method; format: functional, cell-based
[1] = Rattus norvegicus, Sprague-Dawley, Liver
[2] = Rattus norvegicus, Sprague-Dawley, Kidney

SMILES: COc1cc([C@@H]2c3cc4c(cc3C[C@H]3COC(=O)[C@@H]32)OCO4)cc(OC)c1OC(=O)[C@H](CC(C)C)NC(=O)OC1CC(C)(C)N([O])C(C)(C)C1
IC50 (RPMI-8226; rpmi-8226): 110 nM
IC50 (Liver): 18 µM
IC50 (A549; a549): 770 nM
IC50 (Kidney): 12.1 µM
IC50 (HL-60; hl-60): 85 nM

SMILES: CC[C@H](C)[C@H](NC(=O)OC1CC(C)(C)N([O])C(C)(C)C1)C(=O)Oc1c(OC)cc([C@@H]2c3cc4c(cc3C[C@H]3COC(=O)[C@@H]32)OCO4)cc1OC
IC50 (RPMI-8226; rpmi-8226): 58 nM
IC50 (Liver): 13.2 µM
IC50 (A549; a549): 830 nM
IC50 (Kidney): 6.89 µM
IC50 (HL-60; hl-60): 36 nM

SMILES: COc1cc([C@@H]2c3cc4c(cc3C[C@H]3COC(=O)[C@@H]32)OCO4)cc(OC)c1O [4'-DEMETHYLDEOXYPODOPHYLLOTOXIN]
IC50 (RPMI-8226; Homo sapiens, RPMI-8226, 72 h): 230 nM
IC50 (Liver; [1]): 33.8 µM
IC50 (A549; Homo sapiens, A549, 48 h): 800 nM
IC50 (Kidney; [2]): 23 µM
IC50 (HL-60; Homo sapiens, HL-60, 72 h): 110 nM

SMILES: COc1cc([C@@H]2c3cc4c(cc3C[C@H]3COC(=O)[C@@H]32)OCO4)cc(OC)c1OC(=O)[C@@H](NC(=O)OC1CC(C)(C)N([O])C(C)(C)C1)C(C)C
IC50 (RPMI-8226; rpmi-8226): 160 nM
IC50 (Liver): 19.3 µM
IC50 (A549; a549): 550 nM
IC50 (Kidney): 20.3 µM
IC50 (HL-60; hl-60): 24 nM

SMILES: COc1cc([C@@H]2c3cc4c(cc3C[C@H]3COC(=O)[C@@H]32)OCO4)cc(OC)c1OC(=O)[C@H](Cc1ccccc1)NC(=O)OC1CC(C)(C)N([O])C(C)(C)C1
IC50 (RPMI-8226; rpmi-8226): 31 nM
IC50 (Liver): 10.4 µM
IC50 (A549; a549): 500 nM
IC50 (Kidney): 15.1 µM
IC50 (HL-60; hl-60): 18 nM

IC50 (Liver; [1]): 46.4 µM
IC50 (Kidney; [2]): 64.6 µM
SMILES: COc1cc([C@@H]2c3cc4c(cc3[C@@H](O[C@@H]3O[C@@H]5CO[C@@H](C)O[C@H]5[C@H](O)[C@H]3O)[C@H]3COC(=O)[C@H]23)OCO4)cc(OC)c1O [ETOPOSIDE]
IC50 (RPMI-8226; Homo sapiens, RPMI-8226, 72 h): 700 nM
IC50 (A549; Homo sapiens, A549, 48 h): 830 nM
IC50 (HL-60; Homo sapiens, HL-60, 72 h): 180 nM

SMILES: COc1cc([C@@H]2c3cc4c(cc3C[C@H]3COC(=O)[C@@H]32)OCO4)cc(OC)c1OC(=O)CNC(=O)OC1CC(C)(C)N([O])C(C)(C)C1
IC50 (RPMI-8226; rpmi-8226): 73 nM
IC50 (Liver): 14.4 µM
IC50 (A549; a549): 620 nM
IC50 (Kidney): 13.7 µM
IC50 (HL-60; hl-60): 8.7 nM

SMILES: COc1cc([C@@H]2c3cc4c(cc3C[C@H]3COC(=O)[C@@H]32)OCO4)cc(OC)c1OC(=O)[C@@H]1CCCN1C(=O)OC1CC(C)(C)N([O])C(C)(C)C1
IC50 (RPMI-8226; rpmi-8226): 130 nM
IC50 (Liver): 9.7 µM
IC50 (A549; a549): 600 nM
IC50 (Kidney): 14.6 µM
IC50 (HL-60; hl-60): 140 nM

SMILES: COc1cc([C@@H]2c3cc4c(cc3C[C@H]3COC(=O)[C@@H]32)OCO4)cc(OC)c1OC(=O)[C@H](C)NC(=O)OC1CC(C)(C)N([O])C(C)(C)C1
IC50 (RPMI-8226; rpmi-8226): 44 nM
IC50 (Liver): 15.3 µM
IC50 (A549; a549): 670 nM
IC50 (Kidney): 15.8 µM
IC50 (HL-60; hl-60): 12 nM

SMILES: COc1cc([C@@H]2c3cc4c(cc3C[C@H]3COC(=O)[C@@H]32)OCO4)cc(OC)c1OC(=O)[C@H](Cc1ccc(O)cc1)NC(=O)OC1CC(C)(C)N([O])C(C)(C)C1
IC50 (RPMI-8226; rpmi-8226): 43 nM
IC50 (Liver): 15.2 µM
IC50 (A549; a549): 270 nM
IC50 (Kidney): 16.3 µM
IC50 (HL-60; hl-60): 32 nM

Reference: ChEMBL document CHEMBL1157024, “First synthesis and biological evaluation of novel spin-labeled derivatives of deoxypodophyllotoxin” (Eur J Med Chem, 2010)
